{"source": "patent US10242153B2", "about": "“Method for determining the risk profile of neoplastic tissue” (NOVAZOI THERANOSTICS, priority 2014, dated 2019)", "key": {"231 cells": {"system": "231 cells", "experiment": "Centrosome amplification (CA) by microscopy (γ-tubulin/centrin-2 foci), 231 cells", "type": "cell-based, human", "method": "Consequently, CA was assessed in cultures treated with different concentrations of declustering drugs for 6, 12, 18, or 24 h and untreated controls via microscopy. Centrosomes were identified by γ-tubulin and centrin-2 colocalization at discrete foci. […] The peak percent CA detected over 24 h is shown in FIG. 13 (only statistically significant (P<0.05) increases over control values are represented in the Figures). To better understand the “potency” of drug-induced CA with time, the average fold change in CA over controls over 24 h was assessed (FIG. 12, panel A), whereby the extent of CA across time points (i.e., 6, 12, 18, and 24 hr) was averaged and then divided by the extent of CA in control (i.e., 0 hr). All of the drugs at least doubled the peak extent of CA in all cell lines tested (FIG. 12, panel A), although the final extent of CA could be small or large in magnitude depending on the initial centrosomal burden as shown in FIG. 11. […] The peak extent in interphase HeLa cells was somewhat less at 30.7% and 48.1% for 10 and 25 μM RBN, respectively (FIG. 13, panel A). For Nos and BN, there was no major difference in CA levels in interphase versus mitotic cells."}, "[1]": {"system": "PLK4, Cyclin E, and Aurora A", "experiment": "Western blotting of markers of centrosome amplification", "type": "cell-based", "details": "PC3 cells, 25 μM"}}}
{"substance": "reduced-9-bromonoscapine [RBN]", "values": [{"measurement": "change of peak CA extent over controls", "setting": "231 cells; 231 cells, 25 μM", "result": "slightly more than doubled"}, {"measurement": "final extent of CA", "setting": "231 cells; 231 cells, 25 μM, cell cycle stage not stated", "result": "around 90%"}, {"measurement": "maximum extent of CA", "setting": "231 cells; interphase 231 cells, 10 μM", "result": 31, "unit": "%"}, {"measurement": "maximum extent of CA", "setting": "231 cells; interphase 231 cells, 25 μM", "result": 87, "unit": "%"}, {"measurement": "increase in CA over controls", "setting": "231 cells; mitotic 231 cells, 10 μM", "result": "~2.5", "unit": "fold"}, {"measurement": "maximum extent of CA", "setting": "231 cells; mitotic 231 cells, 10 μM", "result": 56, "unit": "%"}, {"measurement": "increase in CA over controls", "setting": "231 cells; mitotic 231 cells, 25 μM", "result": "~2.0", "unit": "fold"}, {"measurement": "maximum extent of CA", "setting": "231 cells; mitotic 231 cells, 25 μM", "result": 96, "unit": "%"}, {"measurement": "expression of Cyclin E and PLK4", "setting": "[1]", "result": "increased Cyclin E and PLK4 expression"}]}
